Laboratory results taken from patent US20240315992A1, “AMINOXY ACID-BASED ANTIBACTERIAL COMPOUNDS AND METHODS THEREOF” (The University of Hong Kong, priority 2023, published 2024).

Assays:
[1] = system: Staphylococcus aureus Mu3 cytoplasmic calcium; assay: Calcium influx monitored by Fluo-4-AM; assay type: cell-based; conditions: Fluo-4-AM fluorescence
Procedure: FIG. 12 is a line graph showing compound 8 can induce calcium influx into cytoplasm. The fluorescence of the Fluo-4-AM loaded in Staphylococcus aureus Mu3 was monitored for 10 minutes. The average of fluorescence in this period was assigned as F0. At t=10 minutes, different concentration of compound 8 was added to bacteria medium and then the fluorescence was further monitored for 40 minutes. Calcium ion transporter ionomycin was used as the positive control. The fluorescence Ft was normalized to initial fluorescence F0. Data represented the mean of biological triplicates.
Briefly, an overnight culture of MRSA Mu3 was sub-cultured 1:100 in fresh CAMH and regrown to exponential phase. The bacteria were washed twice and then re-suspended in PBS (OD595=0.5) containing 5 μM Fluo-4-AM. The bacteria were further incubated at 37° C. in dark for 2 hours before they were washed twice and resuspended into PBS containing 0.5 mM calcium chloride. 200 μL bacteria culture were then added into 96-well plate for each well. The plate was then pre-warmed and the fluorescence was monitored for 10 minutes for background measurement (excitation wavelength: 485 nm, emission wavelength: 535 nm). Fluorescence signal was recorded by Beckman Coulter DTX 880 Multimode Detector. Compounds were then added to 96-well plate and the fluorescence was further monitored for 5 minutes. […]

[2] = system: Staphylococcus aureus Mu3; assay: Antibacterial effect in combination with calcium channel blockers; assay type: cell-based; conditions: 12.5 μM compound 8 (4×MIC), dose dependent
Procedure: (§1) Exponential phase Staphylococcus aureus Mu3 was treated with compound 8 (4×MIC) or combination with calcium channel blocker. Data were representative of mean±S.D. of four individual experiments with error bars. Statistical analysis was performed by one-way ANOVA with Dunnett's post-test to calculate p-values adjusted for multiple comparisons with initial bacteria inoculum as control condition (*p<0.05; **p<0.01; ***p<0.001).
as §1, with “Data” for “Exponential phase Staphylococcus aureus Mu3 was treated with compound 8 (4×MIC) or combination with calcium channel blocker. Data”

[3] = system: MRSA Mu3 cell membrane potential; assay: Membrane potential monitored by DiSC3(5); assay type: cell-based, Staphylococcus aureus
Procedure: FIG. 11 is a line graph showing compound 8 can depolarize Staphylococcus aureus cell membrane under sub-inhibitory concentration and hyperpolarize Staphylococcus aureus cell membrane under inhibitory concentration. Membrane potential was monitored by DiSc3(5) over time (s). Extracellular buffer contained 10 mM HEPEs buffer, 5 mM glucose and 100 mM NaCl, pH 7.1. At t=100 s, 6 μL different concentration of compound 8 and 10 mM valinomycin (Vln) were added to 594 μL MRSA Mu3 pre-incubated with 0.4 μM DiSC3(5). The fluorescence signal was further monitored for 500 s. Data represented the mean±S.D. of technical triplicates.
Typically, an overnight culture of MRSA Mu3 was sub-cultured 1:100 in fresh CAMH and regrown to exponential phase. The bacteria were harvested (3,000×g, 5 min), washed, and re-suspended in a solution with 10 mM HEPEs buffer, 5 mM glucose and 100 mM KCl or 100 mM NaCl (pH 7.2). The bacteria were diluted to OD595 0.3 with the same buffer. […] Bacteria were incubated in darkness for 20 minutes or until fluorescence signal become stable. Fluorescence signal was recorded using Hitachi F-4500 Florescence Spectrometer. In a 1 mL cuvette, 594 μL bacteria incubated with DiSC3(5) were added and the fluorescence was monitored for 100 s. […] The fluorescence was monitored for further 500 s. […]

[4] = system: Staphylococcus aureus ATCC29213 Δatl, ΔSAOUHSC_02855 and ΔSAOUHSC_01895; assay: Bactericidal activity in autolysin deletion mutants; assay type: cell-based; conditions: 4×MIC (12.5 μM), 24 hours, compared to wild type
Procedure: FIG. 15 is the bar graph showing the reduction of bactericidal effect of compound 8 in autolysin deletion mutants of Staphylococcus aureus. Staphylococcus aureus ATCC29213 WT, Staphylococcus aureus ATCC 29213, Δatl, ΔSAOUHSC_02855 and ΔSAOUHSC_01895 was incubated with 4×MIC compounds 8 for 24 hours. 10 μL bacteria were serial diluted and spotted on Mueller Hinton Agar. Colonies were enumerated next day. Data represented the mean±S.D. of biological triplicates. Statistical analysis was performed by unpaired t test compared to wild type in 95% confidence interval (*p<0.05; **p<0.01).
Target DNA upstream 1 kb and downstream 1 kb were PCR amplified from Staphylococcus aureus genomic DNA. The two DNA inserts were ligated to fuse upstream and downstream DNA fragments by overlap PCR. The ligated PCR product was cloned to pKOR1 plasmid using Vazyme ClonExpress®II One Step Cloning Kit, and transformed into Escherichia. coli top 10, plated on LBA containing ampicillin (100 μg/mL), and incubated under 30° C. overnight. Colony PCR was performed with Sanger sequencing for selection of transformants. The plasmid DNA was extracted and subsequently transformed into Staphylococcus aureus RN4220 and ATCC 29213 in TSA containing chloramphenicol (10 μg/mL). […]

**Q.** How did the “calcium influx into cytoplasm” value [1] turn out when `CC(C)C[C@H](ONC(=O)[C@@H](COCc1ccccc1)ONC(=O)c1cc(C(F)(F)F)cc(C(F)(F)F)c1)C(=O)Nc1ccccc1` [Compound 8] was run?
**A.** Its value is “can induce calcium influx into cytoplasm in concentration dependent manner”.

**Q.** What about the “antibacterial effect in combination with calcium channel blocker verapamil or benidipine” value [2] of the same compound?
**A.** The value was “calcium channel blockers can antagonize the antibacterial effect”.

**Q.** What about the “cell membrane potential under inhibitory concentration” value ([3]; inhibitory concentration) of the same compound?
**A.** Its value is “hyperpolarize”.

**Q.** And the “cell membrane potential under sub-inhibitory concentration” value ([3]; sub-inhibitory concentration)?
**A.** The value was “depolarize”.

**Q.** What about the “bactericidal activity in autolysin deficient Staphylococcus aureus” value [4] of the same compound?
**A.** The value was “diminished bactericidal activity”.
